Assay results published in ChEMBL document CHEMBL5291721, “A preclinical secondary pharmacology resource illuminates target-adverse drug reaction associations of marketed drugs” (Nat Commun, 2023).

What was measured:
[1] = biological target: T1, Alpha-2A adrenergic receptor (Homo sapiens, UniProt P08913); format: functional, cell-based
T1 sequence (P08913 whole entry): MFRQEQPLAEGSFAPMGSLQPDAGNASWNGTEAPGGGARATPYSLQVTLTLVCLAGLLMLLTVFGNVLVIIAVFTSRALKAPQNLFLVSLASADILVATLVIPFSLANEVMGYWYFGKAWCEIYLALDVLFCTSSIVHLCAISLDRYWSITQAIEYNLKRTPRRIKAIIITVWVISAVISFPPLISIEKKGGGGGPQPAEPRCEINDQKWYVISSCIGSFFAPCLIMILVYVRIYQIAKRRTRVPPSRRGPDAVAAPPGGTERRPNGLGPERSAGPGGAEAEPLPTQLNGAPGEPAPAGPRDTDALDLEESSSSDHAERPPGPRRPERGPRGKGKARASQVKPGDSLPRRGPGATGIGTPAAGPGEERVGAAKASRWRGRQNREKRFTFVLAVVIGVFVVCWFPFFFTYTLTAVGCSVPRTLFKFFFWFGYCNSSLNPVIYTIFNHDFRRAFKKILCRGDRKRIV

[2] = biological target: T2, Alpha-2B adrenergic receptor (Homo sapiens, UniProt P18089)
T2 sequence (P18089 whole entry): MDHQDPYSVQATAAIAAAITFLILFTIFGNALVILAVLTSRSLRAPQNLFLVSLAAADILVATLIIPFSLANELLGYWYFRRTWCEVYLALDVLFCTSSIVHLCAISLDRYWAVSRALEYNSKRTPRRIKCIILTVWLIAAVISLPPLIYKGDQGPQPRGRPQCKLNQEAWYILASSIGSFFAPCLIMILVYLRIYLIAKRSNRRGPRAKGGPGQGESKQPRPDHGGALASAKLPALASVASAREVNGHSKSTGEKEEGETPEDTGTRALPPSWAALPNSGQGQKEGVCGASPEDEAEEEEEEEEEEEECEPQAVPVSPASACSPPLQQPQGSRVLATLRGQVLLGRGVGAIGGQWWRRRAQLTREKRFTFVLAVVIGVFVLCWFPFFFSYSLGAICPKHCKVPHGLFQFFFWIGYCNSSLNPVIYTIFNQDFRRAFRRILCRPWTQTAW

[3] = biological target: Beta-2 adrenergic receptor (Homo sapiens, UniProt P07550)
[4] = biological target: T3, Type-1 angiotensin II receptor (Homo sapiens, UniProt P30556)
T3 sequence (P30556 whole entry): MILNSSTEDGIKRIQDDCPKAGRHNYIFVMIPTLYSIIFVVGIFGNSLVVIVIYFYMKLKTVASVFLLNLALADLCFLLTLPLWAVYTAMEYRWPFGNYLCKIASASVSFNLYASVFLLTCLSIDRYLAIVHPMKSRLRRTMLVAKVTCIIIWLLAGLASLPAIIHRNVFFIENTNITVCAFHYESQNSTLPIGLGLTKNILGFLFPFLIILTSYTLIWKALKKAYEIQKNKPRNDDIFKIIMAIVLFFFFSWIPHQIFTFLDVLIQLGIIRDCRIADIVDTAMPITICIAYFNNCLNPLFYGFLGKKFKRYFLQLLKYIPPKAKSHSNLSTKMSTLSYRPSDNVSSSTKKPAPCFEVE

[5] = biological target: Voltage-dependent L-type calcium channel subunit alpha-1C (Rattus norvegicus, UniProt P22002); format: functional
[6] = biological target: Muscarinic acetylcholine receptor M3 (Homo sapiens, UniProt P20309)
[7] = biological target: Neuronal acetylcholine receptor subunit alpha-4 (Homo sapiens, UniProt P43681)
[8] = biological target: T4, Endothelin-1 receptor (Homo sapiens, UniProt P25101)
T4 sequence (P25101 whole entry): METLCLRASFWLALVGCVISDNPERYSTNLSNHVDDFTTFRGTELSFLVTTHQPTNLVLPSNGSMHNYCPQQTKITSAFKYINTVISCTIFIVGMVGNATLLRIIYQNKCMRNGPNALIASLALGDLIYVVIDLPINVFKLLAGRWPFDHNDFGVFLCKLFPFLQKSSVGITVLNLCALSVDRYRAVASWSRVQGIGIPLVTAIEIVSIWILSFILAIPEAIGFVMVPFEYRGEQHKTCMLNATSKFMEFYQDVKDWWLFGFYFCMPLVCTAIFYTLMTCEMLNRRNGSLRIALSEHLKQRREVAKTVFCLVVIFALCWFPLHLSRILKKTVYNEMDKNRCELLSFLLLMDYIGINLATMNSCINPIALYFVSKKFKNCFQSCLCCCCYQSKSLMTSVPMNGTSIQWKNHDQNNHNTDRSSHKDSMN

[9] = biological target: 5-hydroxytryptamine receptor 2A (Homo sapiens, UniProt P28223); format: functional, cell-based
[10] = biological target: Melanocortin receptor 3 (Homo sapiens, UniProt P41968)
[11] = biological target: Kappa-type opioid receptor (Homo sapiens, UniProt P41145)
[12] = biological target: cGMP-inhibited 3',5'-cyclic phosphodiesterase 3A (Homo sapiens, UniProt Q14432); format: functional
[13] = biological target: T5, Glucocorticoid receptor (Homo sapiens, UniProt P04150)
T5 sequence (P04150 whole entry): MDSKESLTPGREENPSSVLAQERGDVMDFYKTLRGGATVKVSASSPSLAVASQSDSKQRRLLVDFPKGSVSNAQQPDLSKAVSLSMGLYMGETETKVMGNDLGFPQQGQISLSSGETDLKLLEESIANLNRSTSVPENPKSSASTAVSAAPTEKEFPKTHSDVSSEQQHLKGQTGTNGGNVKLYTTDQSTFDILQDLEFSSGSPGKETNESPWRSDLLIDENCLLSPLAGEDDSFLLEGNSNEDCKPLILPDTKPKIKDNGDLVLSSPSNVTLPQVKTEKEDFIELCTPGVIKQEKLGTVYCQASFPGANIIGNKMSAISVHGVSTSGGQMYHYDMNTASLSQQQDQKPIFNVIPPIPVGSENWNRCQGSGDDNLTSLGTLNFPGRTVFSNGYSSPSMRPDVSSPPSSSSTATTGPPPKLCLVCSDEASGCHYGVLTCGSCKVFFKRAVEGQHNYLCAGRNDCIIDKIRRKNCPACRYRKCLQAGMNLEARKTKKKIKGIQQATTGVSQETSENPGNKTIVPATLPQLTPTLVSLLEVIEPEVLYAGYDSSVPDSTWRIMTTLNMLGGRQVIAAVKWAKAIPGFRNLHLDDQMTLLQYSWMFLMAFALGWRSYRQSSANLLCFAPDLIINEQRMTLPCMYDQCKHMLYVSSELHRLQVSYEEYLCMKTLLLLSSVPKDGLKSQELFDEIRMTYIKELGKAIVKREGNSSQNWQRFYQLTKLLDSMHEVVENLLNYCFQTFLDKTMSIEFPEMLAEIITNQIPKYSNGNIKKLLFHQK
Note: assay procedure not described here.

Chain of Voltage-dependent L-type calcium channel subunit alpha-1C (P22002 whole entry): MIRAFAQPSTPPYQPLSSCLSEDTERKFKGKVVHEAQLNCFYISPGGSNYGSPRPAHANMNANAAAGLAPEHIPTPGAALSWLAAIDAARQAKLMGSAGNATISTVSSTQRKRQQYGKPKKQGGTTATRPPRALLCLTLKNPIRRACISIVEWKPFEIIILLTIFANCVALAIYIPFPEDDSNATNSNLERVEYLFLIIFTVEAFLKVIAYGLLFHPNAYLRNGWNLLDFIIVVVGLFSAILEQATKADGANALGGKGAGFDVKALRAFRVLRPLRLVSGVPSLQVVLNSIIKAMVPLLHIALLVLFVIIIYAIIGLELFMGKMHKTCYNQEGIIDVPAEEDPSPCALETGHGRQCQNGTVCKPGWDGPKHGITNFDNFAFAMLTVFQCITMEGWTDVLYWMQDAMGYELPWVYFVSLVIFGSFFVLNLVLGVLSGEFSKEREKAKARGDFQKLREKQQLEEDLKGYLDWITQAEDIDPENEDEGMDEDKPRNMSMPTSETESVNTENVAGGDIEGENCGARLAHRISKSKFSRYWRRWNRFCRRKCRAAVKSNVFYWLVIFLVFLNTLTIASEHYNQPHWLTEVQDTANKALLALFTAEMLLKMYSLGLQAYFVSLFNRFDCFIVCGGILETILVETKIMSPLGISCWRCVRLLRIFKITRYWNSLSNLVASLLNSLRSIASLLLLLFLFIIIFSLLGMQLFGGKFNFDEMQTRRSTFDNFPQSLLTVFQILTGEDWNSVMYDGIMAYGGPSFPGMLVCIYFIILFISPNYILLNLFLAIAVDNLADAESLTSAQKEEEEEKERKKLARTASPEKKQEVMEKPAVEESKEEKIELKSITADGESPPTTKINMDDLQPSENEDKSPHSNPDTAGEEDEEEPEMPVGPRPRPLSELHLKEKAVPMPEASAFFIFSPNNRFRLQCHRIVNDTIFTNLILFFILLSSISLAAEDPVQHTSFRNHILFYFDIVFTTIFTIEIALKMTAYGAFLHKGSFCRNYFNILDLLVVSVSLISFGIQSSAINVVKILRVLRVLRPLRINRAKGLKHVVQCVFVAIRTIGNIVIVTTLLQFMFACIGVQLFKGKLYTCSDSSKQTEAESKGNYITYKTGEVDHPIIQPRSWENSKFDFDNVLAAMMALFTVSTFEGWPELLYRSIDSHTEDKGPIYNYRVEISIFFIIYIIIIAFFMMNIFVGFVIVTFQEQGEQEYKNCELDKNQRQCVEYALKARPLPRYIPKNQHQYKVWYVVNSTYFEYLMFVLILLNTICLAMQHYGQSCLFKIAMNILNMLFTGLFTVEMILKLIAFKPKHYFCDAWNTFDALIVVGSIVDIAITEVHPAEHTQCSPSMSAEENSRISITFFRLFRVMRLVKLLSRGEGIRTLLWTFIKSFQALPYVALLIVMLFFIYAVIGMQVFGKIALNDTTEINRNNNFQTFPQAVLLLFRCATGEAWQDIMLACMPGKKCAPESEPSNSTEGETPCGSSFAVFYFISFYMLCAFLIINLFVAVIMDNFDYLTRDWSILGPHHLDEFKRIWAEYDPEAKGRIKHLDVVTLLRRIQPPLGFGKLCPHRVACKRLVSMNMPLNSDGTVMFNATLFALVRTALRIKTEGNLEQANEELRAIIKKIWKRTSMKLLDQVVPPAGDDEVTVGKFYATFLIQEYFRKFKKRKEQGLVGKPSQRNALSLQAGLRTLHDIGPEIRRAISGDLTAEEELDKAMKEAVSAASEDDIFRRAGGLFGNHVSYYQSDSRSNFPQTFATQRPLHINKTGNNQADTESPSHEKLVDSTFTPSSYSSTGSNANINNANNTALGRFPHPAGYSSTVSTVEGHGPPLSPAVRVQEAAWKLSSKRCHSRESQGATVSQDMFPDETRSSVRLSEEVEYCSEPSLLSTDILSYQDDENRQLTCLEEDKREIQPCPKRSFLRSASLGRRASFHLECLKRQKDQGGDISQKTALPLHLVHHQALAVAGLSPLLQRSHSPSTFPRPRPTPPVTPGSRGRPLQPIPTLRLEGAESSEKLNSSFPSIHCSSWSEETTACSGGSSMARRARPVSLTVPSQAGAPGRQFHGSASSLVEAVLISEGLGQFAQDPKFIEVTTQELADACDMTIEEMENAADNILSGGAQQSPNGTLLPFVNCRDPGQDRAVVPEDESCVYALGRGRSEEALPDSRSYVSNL
Chain of Muscarinic acetylcholine receptor M3 (P20309 whole entry): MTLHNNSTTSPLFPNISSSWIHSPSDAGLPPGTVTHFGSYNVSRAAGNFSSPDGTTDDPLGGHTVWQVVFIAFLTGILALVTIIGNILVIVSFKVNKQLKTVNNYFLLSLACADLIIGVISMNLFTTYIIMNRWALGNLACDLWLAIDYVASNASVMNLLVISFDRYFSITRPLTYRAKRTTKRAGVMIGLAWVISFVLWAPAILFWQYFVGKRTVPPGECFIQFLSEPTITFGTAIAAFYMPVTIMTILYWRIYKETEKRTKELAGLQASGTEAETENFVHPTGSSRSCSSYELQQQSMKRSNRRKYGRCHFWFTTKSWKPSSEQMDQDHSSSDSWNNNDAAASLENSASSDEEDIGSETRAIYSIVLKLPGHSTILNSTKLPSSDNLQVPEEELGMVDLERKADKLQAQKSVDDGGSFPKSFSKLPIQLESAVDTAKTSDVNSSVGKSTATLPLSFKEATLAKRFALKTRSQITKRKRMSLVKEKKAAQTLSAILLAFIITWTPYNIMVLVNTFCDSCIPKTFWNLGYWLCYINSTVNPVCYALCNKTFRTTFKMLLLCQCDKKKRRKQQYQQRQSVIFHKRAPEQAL
Chain of Beta-2 adrenergic receptor (P07550 whole entry): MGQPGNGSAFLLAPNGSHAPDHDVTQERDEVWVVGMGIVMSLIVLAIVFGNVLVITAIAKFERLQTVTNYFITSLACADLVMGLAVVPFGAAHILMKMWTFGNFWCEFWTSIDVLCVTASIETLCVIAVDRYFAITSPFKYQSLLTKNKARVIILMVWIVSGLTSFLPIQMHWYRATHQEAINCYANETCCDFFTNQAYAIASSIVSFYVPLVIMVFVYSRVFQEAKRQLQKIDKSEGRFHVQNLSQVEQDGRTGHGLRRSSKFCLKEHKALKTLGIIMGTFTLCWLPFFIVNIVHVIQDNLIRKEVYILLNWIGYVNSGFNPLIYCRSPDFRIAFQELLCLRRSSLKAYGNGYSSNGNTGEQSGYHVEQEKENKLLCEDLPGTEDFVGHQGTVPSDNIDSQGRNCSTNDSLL
Chain of 5-hydroxytryptamine receptor 2A (P28223 whole entry): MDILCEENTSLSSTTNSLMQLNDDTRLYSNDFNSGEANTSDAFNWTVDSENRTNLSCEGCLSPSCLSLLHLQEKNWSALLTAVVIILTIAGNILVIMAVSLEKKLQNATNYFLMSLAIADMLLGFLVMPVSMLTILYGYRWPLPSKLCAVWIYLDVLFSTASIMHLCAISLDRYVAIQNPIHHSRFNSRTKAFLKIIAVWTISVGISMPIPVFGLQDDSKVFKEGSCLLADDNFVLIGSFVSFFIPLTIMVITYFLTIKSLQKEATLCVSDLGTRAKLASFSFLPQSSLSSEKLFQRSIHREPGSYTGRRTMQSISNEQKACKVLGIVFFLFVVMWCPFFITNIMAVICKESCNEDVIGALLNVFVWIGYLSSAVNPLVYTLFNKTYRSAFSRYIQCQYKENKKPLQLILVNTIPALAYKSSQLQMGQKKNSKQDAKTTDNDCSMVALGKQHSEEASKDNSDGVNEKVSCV
Chain of Neuronal acetylcholine receptor subunit alpha-4 (P43681 whole entry): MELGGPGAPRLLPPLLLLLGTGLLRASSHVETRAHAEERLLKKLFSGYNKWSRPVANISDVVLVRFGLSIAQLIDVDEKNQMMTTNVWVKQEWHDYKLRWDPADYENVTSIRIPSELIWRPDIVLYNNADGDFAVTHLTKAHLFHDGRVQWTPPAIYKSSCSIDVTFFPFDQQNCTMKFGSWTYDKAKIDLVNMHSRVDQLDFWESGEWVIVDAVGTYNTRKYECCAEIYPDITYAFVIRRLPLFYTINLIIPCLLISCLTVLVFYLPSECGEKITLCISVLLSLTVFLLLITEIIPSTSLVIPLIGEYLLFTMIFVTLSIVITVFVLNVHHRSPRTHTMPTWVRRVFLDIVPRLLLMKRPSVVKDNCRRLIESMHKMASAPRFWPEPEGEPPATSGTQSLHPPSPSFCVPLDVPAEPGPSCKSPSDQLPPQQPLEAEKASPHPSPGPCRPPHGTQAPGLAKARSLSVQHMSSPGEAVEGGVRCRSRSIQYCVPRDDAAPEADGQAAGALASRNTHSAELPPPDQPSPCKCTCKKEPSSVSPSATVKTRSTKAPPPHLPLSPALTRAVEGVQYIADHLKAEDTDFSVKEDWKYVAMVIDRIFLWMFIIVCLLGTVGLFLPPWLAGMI
Chain of Kappa-type opioid receptor (P41145 whole entry): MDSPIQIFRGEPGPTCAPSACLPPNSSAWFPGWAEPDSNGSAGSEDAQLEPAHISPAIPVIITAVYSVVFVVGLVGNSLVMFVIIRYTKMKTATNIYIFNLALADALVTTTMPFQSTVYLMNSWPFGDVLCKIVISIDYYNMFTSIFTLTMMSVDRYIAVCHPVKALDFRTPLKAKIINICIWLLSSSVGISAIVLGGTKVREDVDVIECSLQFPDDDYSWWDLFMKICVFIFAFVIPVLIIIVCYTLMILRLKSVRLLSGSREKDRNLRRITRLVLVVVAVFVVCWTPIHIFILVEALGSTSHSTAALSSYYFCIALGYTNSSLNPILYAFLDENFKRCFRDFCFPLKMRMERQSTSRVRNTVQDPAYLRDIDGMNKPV
Chain of Melanocortin receptor 3 (P41968 whole entry): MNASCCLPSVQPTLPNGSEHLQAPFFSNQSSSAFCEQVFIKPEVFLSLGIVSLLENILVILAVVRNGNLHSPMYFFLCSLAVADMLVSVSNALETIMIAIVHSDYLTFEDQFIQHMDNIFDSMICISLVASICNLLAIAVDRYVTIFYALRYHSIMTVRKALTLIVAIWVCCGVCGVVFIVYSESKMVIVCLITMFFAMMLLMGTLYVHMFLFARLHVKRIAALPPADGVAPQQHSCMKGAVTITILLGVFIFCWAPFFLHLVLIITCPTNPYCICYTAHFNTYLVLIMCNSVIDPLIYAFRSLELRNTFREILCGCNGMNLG

| SMILES | AC50 [1] [µM] | AC50 [2] [µM] | AC50 [3] [µM] | AC50 [4] [µM] | AC50 [5] [µM] | AC50 [6] [µM] | AC50 [7] [µM] | AC50 [8] [µM] | AC50 [9] [µM] | AC50 [10] [µM] | AC50 [11] [µM] | AC50 [12] [µM] | AC50 [13] [µM] |
| --- | --- | --- | --- | --- | --- | --- | --- | --- | --- | --- | --- | --- | --- |
| COc1ccc(-c2ccc3cc(C(=O)O)ccc3c2)cc1C12CC3CC(CC(C3)C1)C2 | > 30 | > 30 | > 30 | > 30 | 1.5 | > 30 | > 30 | > 30 | > 30 | > 30 | > 30 | > 30 | – |
| CNS(=O)(=O)Cc1ccc2[nH]cc(CCN(C)C)c2c1 | > 30 | – | > 10 | > 30 | > 10 | – | – | > 30 | – | > 30 | > 30 | > 30 | > 30 |
| COc1ccccc1N1CCN(CCCNc2cc(=O)n(C)c(=O)n2C)CC1 | > 30 | – | 0.8 | > 30 | > 30 | > 30 | > 30 | > 30 | > 30 | > 30 | > 30 | 9.5 | – |
| CCOC(=O)[C@H](CCc1ccccc1)N[C@@H](C)C(=O)N1C(=O)N(C)C[C@H]1C(=O)O | > 30 | > 30 | > 30 | > 30 | > 30 | > 30 | > 30 | > 30 | > 30 | > 30 | – | > 30 | – |
| CC(C)(C)C(=O)Oc1ccc(S(=O)(=O)Nc2ccccc2C(=O)NCC(=O)O)cc1 | > 30 | > 30 | > 30 | > 30 | > 30 | > 30 | > 30 | > 30 | > 30 | > 30 | > 30 | > 30 | – |
| CC(=O)O[C@H]1CC[C@@]2(C)C(=CC[C@@H]3[C@@H]2CC[C@]2(C)C(c4cccnc4)=CC[C@@H]32)C1 [ABIRATERONE ACETATE] | > 30 | > 30 | > 10 | > 30 | – | > 30 | > 30 | > 30 | > 30 | > 30 | – | > 30 | – |
| CCOC(=O)OC(C)OC1=C(C(=O)Nc2ccccn2)N(C)S(=O)(=O)c2ccccc21 (centres undefined) [AMPIROXICAM] | > 30 | – | > 30 | > 30 | > 30 | – | > 30 | > 30 | – | > 30 | > 30 | > 30 | > 30 |
| O=C(O)CCCCCCCC(=O)O [AZELAIC ACID] | > 10 | > 10 | > 10 | > 10 | > 10 | > 30 | > 10 | – | > 10 | > 10 | > 10 | > 30 | – |
| CCN1CCN(C(=O)N[C@@H](C(=O)N[C@@H]2C(=O)N3C(C(=O)O)=C(CSc4nnnn4C)CS[C@H]23)c2ccc(O)cc2)C(=O)C1=O [CEFOPERAZONE] | > 30 | > 30 | – | > 30 | – | > 30 | > 30 | > 30 | > 30 | > 30 | > 10 | 9.5 | – |
| CC(C)C(=O)c1c(C(C)C)nn2ccccc12 [IBUDILAST] | > 30 | > 30 | > 30 | > 30 | > 30 | > 30 | > 30 | > 30 | > 30 | > 30 | > 30 | – | – |
| CC(C)(C)c1cc(C(C)(C)C)c(NC(=O)c2c[nH]c3ccccc3c2=O)cc1O [IVACAFTOR] | > 10 | > 10 | > 10 | 26.9 | > 10 | > 30 | > 10 | – | – | > 30 | > 10 | > 30 | > 30 |
| CCCC(C)C1(CC)C(=O)NC(=O)NC1=O (centres undefined) [PENTOBARBITAL] | > 10 | > 30 | > 10 | > 10 | > 10 | > 30 | > 10 | – | > 10 | > 10 | > 10 | > 30 | – |
| CC[C@@H]1C(=O)OC[C@@H]1Cc1cncn1C [PILOCARPINE] | > 10 | > 10 | > 10 | > 30 | > 10 | – | > 10 | – | > 30 | > 30 | > 10 | > 30 | – |
| CCCN(CCC)C(=O)C(CCC(=O)O)NC(=O)c1ccccc1 (centres undefined) [PROGLUMIDE] | > 10 | – | > 30 | > 30 | > 10 | – | > 30 | > 30 | – | > 30 | > 10 | > 30 | > 30 |
| C#C[C@]1(O)CC[C@H]2[C@@H]3CCc4cc(OC5CCCC5)ccc4[C@H]3CC[C@@]21C [QUINESTROL] | > 10 | > 10 | > 10 | > 10 | > 10 | > 30 | > 10 | – | > 10 | > 10 | > 10 | > 30 | – |
| C/C(O)=C(\C#N)C(=O)Nc1ccc(C(F)(F)F)cc1 [TERIFLUNOMIDE] | > 30 | > 30 | – | > 30 | – | > 30 | > 30 | > 30 | 28 | > 30 | – | > 30 | – |
